Data published in ChEMBL document CHEMBL1142979, “Nonprenylated rotenoids, a new class of potent breast cancer resistance protein inhibitors” (J Med Chem, 2007).

Tests used:
Type in all cases: cell-based
BCRP (ABCG2) = target: T1, BCRP (ABCG2) (Homo sapiens, UniProt Q9UNQ0); experiment: Inhibition of BCRP expressed in human HEK293 cells assessed as maximal mitoxantrone accumulation at 20 uM relative control; settings: HEK293 cells that express BCRP, probe mitoxantrone, read-out: Activity
T1 sequence (Q9UNQ0 whole entry): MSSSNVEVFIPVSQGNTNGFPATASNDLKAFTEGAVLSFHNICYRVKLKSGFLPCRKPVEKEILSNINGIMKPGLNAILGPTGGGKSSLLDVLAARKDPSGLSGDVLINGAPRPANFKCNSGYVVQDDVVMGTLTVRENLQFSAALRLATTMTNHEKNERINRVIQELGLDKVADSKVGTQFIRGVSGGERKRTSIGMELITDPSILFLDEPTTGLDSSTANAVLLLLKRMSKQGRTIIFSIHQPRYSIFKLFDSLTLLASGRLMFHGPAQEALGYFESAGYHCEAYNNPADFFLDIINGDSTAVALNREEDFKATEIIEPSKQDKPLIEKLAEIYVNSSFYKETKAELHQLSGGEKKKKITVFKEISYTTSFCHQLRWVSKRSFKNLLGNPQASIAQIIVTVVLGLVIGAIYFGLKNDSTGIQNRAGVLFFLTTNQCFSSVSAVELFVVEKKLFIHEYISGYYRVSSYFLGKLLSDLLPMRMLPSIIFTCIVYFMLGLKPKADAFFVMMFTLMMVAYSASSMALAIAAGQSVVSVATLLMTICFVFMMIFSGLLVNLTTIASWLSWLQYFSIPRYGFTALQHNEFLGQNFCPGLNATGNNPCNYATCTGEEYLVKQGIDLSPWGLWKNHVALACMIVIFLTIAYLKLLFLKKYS

[1] = target: T2, Broad substrate specificity ATP-binding cassette transporter ABCG2 (Homo sapiens, UniProt Q9UNQ0); experiment: Inhibition of BCRP expressed in human HEK293 cells assessed as maximal mitoxantrone accumulation at 10 uM relative control; parameters: scale not given: the % may be the effect or the level left; settings: hek293, 10 µM
T2 sequence (Q9UNQ0 whole entry): T1 sequence (Q9UNQ0 whole entry)

[2] = target: T2, Broad substrate specificity ATP-binding cassette transporter ABCG2; experiment: Inhibition of BCRP expressed in human HEK293 cells assessed as maximal mitoxantrone accumulation at 5 uM relative control; parameters: scale not given: the % may be the effect or the level left; settings: hek293, 5 µM
[3] = target: T2, Broad substrate specificity ATP-binding cassette transporter ABCG2; experiment: Inhibition of BCRP expressed in human HEK293 cells assessed as maximal mitoxantrone accumulation

## COc1cc2oc3c(c(=O)c2c(O)c1C)-c1cccc(O)c1OC3O (stereo not drawn) [9-O-METHYL-4-HYDROXYBOERAVINONE B]
BCRP (ABCG2)
  Emax at 20 µM: 15%

## COC1Oc2ccccc2-c2c1oc1cc(O)c(C)c(O)c1c2=O (stereo not drawn) [BOERAVINONE A]
[1]
  Activity: 27%

## Cc1c(O)cc2oc3c(c(=O)c2c1O)-c1ccccc1OC3O (stereo not drawn) [BOERAVINONE B]
[1]
  Activity: 55%

## COc1cc2c(c(O)c1C)C(=O)[C@]1(O)c3cccc(O)c3OC[C@H]1O2 [BOERAVINONE C]
[1]
  Activity: 31%

## Cc1c(O)cc2oc3c(c(=O)c2c1O)-c1ccc(O)cc1OC3O (stereo not drawn) [BOERAVINONE E]
[1]
  Activity: 56%

## COc1cc(O)c2c(=O)c3c(oc2c1)C(OC)Oc1c(O)cccc1-3 (stereo not drawn) [BOERAVINONE G]
[2]
  Activity: 92%
[3]
  IC50: 0.7 µM

## COc1cc2oc3c(c(=O)c2c(O)c1C)-c1cccc(O)c1OC3OC (stereo not drawn) [BOERAVINONE H]
[2]
  Activity: 68%
[3]
  IC50: 2.5 µM

## COc1c(C)c(O)c2c(=O)c3c(oc2c1O)C(O)Oc1ccccc1-3 (stereo not drawn) [BOERAVINONE I]
BCRP (ABCG2)
  Emax at 20 µM: 12%

## Cc1c(O)cc2oc3oc4cc(O)ccc4c3c(=O)c2c1O [BOERAVINONE J]
BCRP (ABCG2)
  Emax at 20 µM: 15%

## O=c1c2c(oc3cc(O)cc(O)c13)C(O)Oc1ccccc1-2 (stereo not drawn) [COCCINEONE B]
[1]
  Activity: 29%

## COc1cc2c(c(O)c1OC)C(=O)[C@]1(O)c3ccccc3OC[C@H]1O2 [COCCINEONE E]
[1]
  Activity: 15%
